IC50 and inhibition data for 34 compounds are collected here from PubChem BioAssay AID850 (SRMLSC, 2007).

Assay [1] relates to Saccharomyces cerevisiae growth inhibition, permissive control. Put plainly: yeast lifespan-shortening chemical project counter-assay, dose-response inhibition of growth under permissive conditions (AID 850).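 Note: growth read as optical density after one day of incubation.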
Assay in assay [2]: as above
The settings on record: Saccharomyces cerevisiae growth inhibition, permissive control, measured here: maximum growth inhibition, stronger effect = higher value.

The source made the active and inactive calls. The rule behind the calls is not given here. A value given as a limit tells only on which side of the number the result lay.

Take `Cn1c(SCC(=O)Nc2ccccc2)nc(O)cc1=O`: the half-maximal inhibitory concentration (IC50) (usually the point on the concentration scale where inhibition reaches its midpoint) in assay [1] was 33.2 µM. Also, the inhibition (commonly the change of the read-out against control, counted positive when it falls) in assay [2] (at 50 µM) came out at 76.2%.
In the case of `CCCc1ccc(Oc2cn[nH]c2-c2ccc(O)c(C)c2O)cc1`, the IC50 in assay [1] is 7.32 µM. For the same compound, in assay [2] (at 12.5 µM), the inhibition worked out at 101%.
Consider `CC(=O)/C(=N\Nc1ccc(C)cc1)N1CCOCC1`, for which the half-maximal inhibitory concentration (IC50) in assay [1] is 5.2 µM. Further, the inhibition in assay [2] (at 50 µM) stood at 96.4%.
Turning to `Cc1cc(C)nc(N/N=C/C2=C(N3CCOCC3)C(=C\c3ccc(Cl)cc3)/CC2)n1`, the IC50 in assay [1] is > 100 µM (inactive). For the same compound, the inhibition in assay [2] (at 3.125 µM) came to 5.26%.
Consider `CCc1cccc(CC)c1NC(=S)NCc1ccc2[nH]c(C)cc2c1`, for which the IC50 in assay [1] was > 100 µM (inactive). For the same compound, the inhibition in assay [2] (at 50 µM) is 13.8%.
On to `CCCCN(CCCC)C(=S)N/N=C/c1c(C)[nH]n(-c2ccccc2)c1=O`, for which the IC50 in assay [1] is > 100 µM (inactive). Further, in assay [2] (at 0.781 µM), the inhibition is 19.7%.
`CCOC(=O)c1cnc(-n2nc(C)cc2C)nc1NC1CCCCC1`: the IC50 in assay [1] was 42.8 µM. Also, the inhibition in assay [2] (at 50 µM) came to 57.5%.
As for `O=C(O)c1ccc2nc(-c3ccccc3)sc2c1`, the IC50 in assay [1] was > 100 µM (inactive). Also, the inhibition in assay [2] (at 0.781 µM) worked out at 28.2%.
Take `COc1ccc(CNC(=O)CSc2nnc(-c3ccc(NC(C)=O)cc3)n2C)cc1`: in assay [1], the IC50 was > 100 µM (inactive). For the same compound, in assay [2] (at 3.125 µM), the inhibition came out at 26.8%.
As for `Cc1ccc(N/N=C/c2c(O)cc(C)oc2=O)cc1`, the IC50 in assay [1] is 11.8 µM. The inhibition in assay [2] (at 50 µM) was found to be 99.4%.
Regarding `CC1=C/C(=N\OS(=O)(=O)c2ccccc2)C(C)=CC1=O`, the IC50 in assay [1] is 0.614 µM. Also, the inhibition in assay [2] (at 12.5 µM) is 100%.
As to `Oc1cc(-c2ccccc2)c2ccccc2c1`, the IC50 in assay [1] is 35.3 µM. In addition, the inhibition in assay [2] (at 50 µM) was found to be 92.8%.
`Clc1ccc2[nH]c3c(c2c1)CCc1cn[nH]c1-3`: in assay [1], the IC50 is 5.72 µM. For the same compound, in assay [2] (at 25 µM), the inhibition stood at 93.8%.
Take `CCCC1COC(Cn2cncn2)(c2ccc(Cl)cc2Cl)O1` (stereo not drawn): in assay [1], the IC50 is 0.184 µM. The inhibition in assay [2] (at 3.125 µM) came to 97.3%.
For the compound `Cc1ccc(OC(=S)Nc2ccc(O)cc2)cc1`, the IC50 in assay [1] is 16.3 µM. Also, the inhibition in assay [2] (at 50 µM) was 99.6%.
The matching figures for `Cc1cccnc1Nc1nc(-c2ccccn2)cs1`: 37.9 µM and 94.5%.
For the compound `COC(=O)Cn1c2ccccc2c2nc(C)sc21`, the IC50 in assay [1] is > 100 µM (inactive). The inhibition in assay [2] (at 6.25 µM) was 28.7%.
For `COc1cc(/C=N/N(C)c2ccccc2)cc(Cl)c1O`, the IC50 in assay [1] is > 100 µM (inactive). The inhibition in assay [2] (at 1.563 µM) worked out at 14.6%.
`CCCc1cc(C(=O)Cc2ccc(F)cc2)c(O)cc1O`: the IC50 in assay [1] was 26.9 µM. Besides, the inhibition in assay [2] (at 50 µM) was determined as 80.4%.
With `CCCc1ccc(Oc2c(-c3ccc(O)c(C)c3O)n[nH]c2C)cc1`, the 50% inhibitory concentration (IC50) in assay [1] is 14.8 µM. Besides, the inhibition in assay [2] (at 50 µM) was 93.6%.
The matching figures for `O=C(O)CSc1cccc[n+]1[O-]`: 28.7 µM and 94.2%.
`c1ccc2c(c1)nnn1c3ccccc3nc21`: the IC50 in assay [1] is > 100 µM (inactive). Further, in assay [2] (at 3.125 µM), the inhibition worked out at 14.6%.
In the case of `O=C(O)CSc1nc(-c2ccc(Cl)cc2)nc2c1oc1ccccc12`, in assay [1], the IC50 is 32.1 µM. In assay [2] (at 50 µM), the inhibition stood at 86.6%.
In the same order, the values of `Cc1cccc(NC(=O)CC2SC(=O)N(c3ccccc3)C2=O)c1` (stereo not drawn) are > 100 µM (inactive) and -6.43%.
In the same order, the values of `CCn1c2ccc(C)cc2c2nc3cc(C(=O)O)ccc3nc21` are 23.9 µM and 75%.
Turning to `CC12C(=O)N(c3cccc4cccnc34)C(=O)C1C1C=CC2C1` (stereo not drawn), the IC50 in assay [1] is > 100 µM (inactive). Moreover, the inhibition in assay [2] (at 0.781 µM) was determined as 13.8%.
Consider `Oc1cccc(C=NCc2ccccc2)c1O`, for which, in assay [1], the IC50 is 10.4 µM. For the same compound, in assay [2] (at 50 µM), the inhibition turned out to be 98.8%.
In the same order, the values of `N/C(Cc1ccc(Cl)cc1)=N\OC(=O)c1cccc2ccccc12` are 44.3 µM and 99.6%.
Turning to `O=c1cc(-c2ccccc2)n(S(=O)(=O)c2ccccc2)o1`, in assay [1], the IC50 is > 100 µM (inactive). Also, the inhibition in assay [2] (at 0.195 µM) came to 2.71%.
Take `C=CCc1c(C)c(C#N)c2nc3ccccc3n2c1NCCN(C)C`: the IC50 in assay [1] is 12.5 µM. For the same compound, the inhibition in assay [2] (at 50 µM) is 98.6%.
For `O=C1CCN2C=Nc3cccc4ccc1c2c34`, the IC50 in assay [1] was > 100 µM (inactive). In addition, in assay [2] (at 25 µM), the inhibition was 26%.
As to `Cn1cccc1C(=O)NC(=O)CSc1cccc[n+]1[O-]`, the half-maximal inhibitory concentration (IC50) in assay [1] was 24.3 µM. The inhibition in assay [2] (at 50 µM) is 97.5%.
In the same order, the values of `Clc1cc2nc3ccccn3c2cc1Cl` are > 100 µM (inactive) and 16%.
In the same order, the values of `CCCCOC(=O)n1c(=S)oc2cc(Cl)ccc21` are 14.5 µM and 99.8%.
